# Experimental data published in patent publication EP2975033A1, “Improved cysteine-protease inhibitors” (Universitat Jaume I, priority 2014, dated 2016).
# Where “and” joins values, the source holds several entries; their conditions need not be identical. Equal values may be shown once. Read-outs that look alike come from different tables or passages of the source.
# Experiments:
# [1] = tested on: P. falciparum NF54 strain; experiment: Activity against P. falciparum, 3H-hypoxanthine incorporation assay; assay type: cell-based; conditions: Plasmodium falciparum, NF54
# [2] = tested on: L. donovani strain MHOM/ET/67/L82; experiment: Activity against L. donovani axenic amastigotes (Alamar Blue); assay type: cell-based; conditions: for IC50: Leishmania donovani
# Experimental: (§1) For all the susceptibility assays with parasites and cells, each drug was tested in duplicate and each assay was repeated at least once. • a. Activity against Trypanosoma brucei rhodesiense STIB900. This stock was isolated in 1982 from a human patient in Tanzania and after several mouse passages cloned and adapted to axenic culture conditions (Baltz et al 1985) Minimum Essential Medium (50 µl) supplemented with 25 mM HEPES, 1g/l additional glucose, 1% MEM non-essential amino acids (100x), 0.2 mM 2-mercaptoethanol, 1 mM Na-pyruvate and 15% heat inactivated horse serum was added to each well of a 96-well microtiter plate. Serial drug dilutions of eleven 3-fold dilution steps covering a range from 100 to 0.002 µg/ml were prepared. Then 4x10^3 bloodstream forms of T. b. rhodesiense STIB 900 in 50 µl was added to each well and the plate incubated at 37 °C under a 5 % CO2 atmosphere for 70 h. 10 µl Alamar Blue (resazurin, 12.5 mg in 100 ml double-distilled water) was then added to each well and incubation continued for a further 2-4 h (Raz et al 1997). Then the plates were read with a Spectramax Gemini XS microplate fluorometer (Molecular Devices Cooperation, Sunnyvale, CA, USA) using an excitation wave length of 536 nm and an emission wave length of 588 nm. The IC50 values were calculated by linear regression (Huber 1993) from the sigmoidal dose inhibition curves using SoftmaxPro software (Molecular Devices Cooperation, Sunnyvale, CA, USA). Melarsoprol (Arsobal Sanofi-Aventis, received from WHO) is used as control. • b. Activity against T. cruzi. Rat skeletal myoblasts (L-6 cells) were seeded in 96-well microtitre plates at 2000 cells/well in 100 µL RPMI 1640 medium with 10% FBS and 2 mM I-glutamine. After 24 h the medium was removed and replaced by 100 µl per well containing 5000 trypomastigote forms of T. cruzi Tulahuen strain C2C4 containing the β-galactosidase (Lac Z) gene (Buckner et al. 1996). After 48 h the medium was removed from the wells and replaced by 100 µl fresh medium with or without a serial drug dilution of eleven 3-fold dilution steps covering a range from 100 to 0.002 µg/ml. After 96 h of incubation the plates were inspected under an inverted microscope to assure growth of the controls and sterility. Then the substrate CPRG/Nonidet (50 µl) was added to all wells. A color reaction developed within 2-6 h and could be read photometrically at 540 nm. Data were analyzed with the graphic programme Softmax Pro (Molecular Devices), which calculated IC50 values by linear regression (Huber 1993) from the sigmoidal dose inhibition curves. […] Activity against L. donovani axenic amastigotes. Amastigotes of L. donovani strain MHOM/ET/67/L82 were grown in axenic culture at 37 °C in SM medium (Cunnigham et al. 1977) at pH 5.4 supplemented with 10% heat-inactivated fetal bovine serum under an atmosphere of 5% CO2 in air. One hundred microlitres of culture medium with 10^5 amastigotes from axenic culture with or without a serial drug dilution were seeded in 96-well microtitre plates. Serial drug dilutions of eleven 3-fold dilution steps covering a range from 90 to 0.002 µg/ml were prepared. After 70 h of incubation the plates were inspected under an inverted microscope to assure growth of the controls and sterile conditions. 10 µl of Alamar Blue (12.5 mg resazurin dissolved in 100 ml distilled water) (Mikus and Steverdig. 2000) were then added to each well and the plates incubated for another 2 h. Then the plates were read with a Spectramax Gemini XS microplate fluorometer (Molecular Devices Cooperation, Sunnyvale, CA, USA) using an excitation wave length of 536 nm and an emission wave length of 588 nm. Data were analyzed using the software Softmax Pro (Molecular Devices Cooperation, Sunnyvale, CA, USA). Decrease of fluorescence (= inhibition) was expressed as percentage of the fluorescence of control cultures and plotted against the drug concentrations. From the sigmoidal inhibition curves the IC50 values were calculated. • d.
# [3] = tested on: Trypanosoma brucei rhodesiense STIB900; experiment: Activity against Trypanosoma brucei rhodesiense STIB900 (Alamar Blue); assay type: cell-based; conditions: Trypanosoma brucei
# Experimental: as §1
# [4] = tested on: T. cruzi Tulahuen strain C2C4; experiment: Activity against T. cruzi in L-6 cells (beta-galactosidase, CPRG); assay type: cell-based; conditions: Trypanosoma cruzi, TULAHUEN, L6
# Experimental: as §1
# Rhodesain = biological target: T1, Rhodesain (Trypanosoma brucei rhodesiense, UniProt Q95PM0); experiment: Protease assay, fluorogenic substrate Z-Phe-Arg-AMC: Rhodesain; assay type: biochemical; conditions: for IC50: RD=Rhodesain, 25 °C, pH 5.5, 10µM substrate
# T1 construct: made in house
# T1 sequence (Q95PM0 entry or part of it): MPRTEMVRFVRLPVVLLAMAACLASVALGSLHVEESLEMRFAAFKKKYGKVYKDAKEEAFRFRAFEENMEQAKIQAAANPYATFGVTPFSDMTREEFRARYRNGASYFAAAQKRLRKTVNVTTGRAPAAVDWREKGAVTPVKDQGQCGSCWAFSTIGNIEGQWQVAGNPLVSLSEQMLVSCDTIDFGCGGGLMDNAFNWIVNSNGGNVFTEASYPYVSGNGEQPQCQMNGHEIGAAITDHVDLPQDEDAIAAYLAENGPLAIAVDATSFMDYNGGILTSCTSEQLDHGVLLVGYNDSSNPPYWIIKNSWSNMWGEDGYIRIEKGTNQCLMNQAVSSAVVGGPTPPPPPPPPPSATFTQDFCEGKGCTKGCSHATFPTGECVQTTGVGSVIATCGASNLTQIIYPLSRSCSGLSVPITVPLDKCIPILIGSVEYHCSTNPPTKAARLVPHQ
# Excerpt: (§2) 2.1.1. Protease Assays as shown in tables 1 and 2: Cathepsin L (human), Cathepsin B (human), Rhodesain (Trypanosoma brucei rhodesiense), Falcipain 2 (Plasmodium falciparum)
# (§3) Enzyme assays used to identify inhibitors of the target cysteine proteases. The effect is detected measuring fluorescence increase due to hydrolysis of fluorogenic substrates by the target enzymes in absence and presence of potential inhibitors.
# (§4) • a. Proteins (enzymes): • Cathepsin L (human liver) Calbiochem • Cathepsin B (human liver) Calbiochem • Rhodesain: recombinantly expressed according to ref.: Caffrey, C. R.; Hansell, E.; Lucas, K. D.; Brinen, L. S.; Hernandez, A. A.; Cheng, J.; Gwaltney, S. L., II; Roush, W. R.; Stierhof, Y. D.; Bogyo, M.; Steverding, D.; McKerrow, J. H. Active site mapping, biochemical properties and subcellular localization of rhodesain, the major cysteine protease of Trypanosoma • Falcipain 2: recombinantly expressed according to ref.: Pandey, K. C.; Wang, S. X.; Sijwali, P. S.; Lau, A. L.; McKerrow, J. H.; Rosenthal, P. J. The Plasmodium falciparum cysteine protease falcipain-2 captures its substrate, hemoglobin, via a unique motif. Proc. Natl. Acad. Sci. U.S.A. 2005, 102, 9138-9143. • b. Buffers: • Cathepsin B: 50 mM Tris-Puffer pH 6.5 mit 2 mM DTT, 5 mM EDTA, 200 mM NaCl, 0.005% Brij35 • Cathepsin L: 50 mM Tris-Puffer pH 6.5 mit 2 mM DTT, 5 mM EDTA, 200 mM NaCl, 0.005% Brij35 • Rhodesain: 50 mM Acetat-Puffer pH 5.5 mit 5 mM DTT, 5 mM EDTA, 200 mM NaCl, 0.005% Brij35 • Falcipain 2: 50 mM Acetat-Puffer pH 5.5 mit 5 mM DTT, 5 mM EDTA, 200 mM NaCl, 0.005% Brij35 • c. Substrates: • Cathepsin L: 6,25 µM Z-Phe-Arg-7-amino-4-methylcumarin, HCl von Bachem, Ex 380 nm, Em 460 nm • Cathepsin B: 100 µM Z-Phe-Arg-7-amino-4-methylcumarin, HCl von Bachem, Ex 380 nm, Em 460 nm • Rhodesain: 10µM Z-Phe-Arg-7-amino-4-methylcumarin, HCl von Bachem, Ex 380 nm, Em 460 nm • Falcipain 2: 25µM Z-Phe-Arg-7-amino-4-methylcumarin, HCl von Bachem, Ex 380 nm, Em 460 nm • Reference substance(s)/positive control(s): E64 • d. Solvent for inhibitors and substrates: DMSO 99,5% (GC) DC4540, Sigma • e. Measurement device: Tecan Fluorescence spectrophotometer infinite F200 Pro • f. Well plates: 96 well plates, Lia-Plate White, Greiner bio-one, flat bottom, high binding • g. Methodology: Substrates and inhibitor stock solutions are prepared in DMSO and diluted with the respective assay buffer (final DMSO concentration: […]). Enzyme stock solutions are diluted with assay buffer to yield a fluorescence increase of dF/min ≈ _20. Total volume: 200 µL (180 µL of assay buffer, 5 µL of enzyme solution, 10 µL of DMSO or inhibitor solution, 5 µL of substrate solution). Assays are started by the addition of substrate solution. Fluorescence increase is detected over a period of 10 - 30 min, depending on time dependent (30 min) or non-time dependent (10 min) inhibition. • h. Temp: 25 °C • i. DATA-[…] • Software: Grafit 5.013 • Ki values are calculated from IC50 values (obtained by the 4-parameter IC50 equation) using the Chen-Prusoff equation: Ki=IC50/(1 + [S]/Km)
# (§5) In vitro inhibition of cysteine-proteases cruzain (CR) (Trypanosoma cruzi (T. cruzi)), rhodesain (RD) (T. brucei), cathepsin B (CB), falcipain (FP2) (Plasmodium falciparum) and cathepsin L (CL) was assessed by quantification of the resulting fluorescence emission of the proteolytic breakdown of synthetic compound Z-Phe-Arg-AMC (Bachem). The results of this determination are shown in tables 1 and 2 illustrated above.
# Cathepsin L (human) = biological target: T2, Cathepsin L (human) (Homo sapiens, UniProt P07711); experiment: Protease assay, fluorogenic substrate Z-Phe-Arg-AMC: Cathepsin L; assay type: biochemical
# T2 construct: Cathepsin L (human liver) Calbiochem; purchased Calbiochem; host or cells: human liver (tissue-derived)
# T2 sequence (P07711 114-333): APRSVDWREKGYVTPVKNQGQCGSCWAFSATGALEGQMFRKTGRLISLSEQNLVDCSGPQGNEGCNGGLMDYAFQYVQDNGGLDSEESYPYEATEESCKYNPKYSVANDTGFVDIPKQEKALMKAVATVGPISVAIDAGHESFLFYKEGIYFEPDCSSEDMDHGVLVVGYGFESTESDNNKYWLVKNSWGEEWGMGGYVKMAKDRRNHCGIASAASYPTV
# Excerpt: as §2, §3, §4, §5
# Cathepsin B (human) = biological target: T3, Cathepsin B (human) (Homo sapiens, UniProt P07858); experiment: Protease assay, fluorogenic substrate Z-Phe-Arg-AMC: Cathepsin B; assay type: biochemical; conditions: CB=CathepsinB; for IC50: 25 °C, pH 6.5, 100 µM substrate, read-out: CBIC50micM
# T3 construct: Cathepsin B (human liver) Calbiochem; purchased Calbiochem; host or cells: human liver (tissue-derived)
# Excerpt: as §2, §3, §4, §5
# Falcipain 2 = biological target: T4, Falcipain 2 (Plasmodium falciparum, UniProt Q8I6U4); experiment: Protease assay, fluorogenic substrate Z-Phe-Arg-AMC: Falcipain 2; assay type: biochemical; conditions: FP2=Falcipain2
# T4 construct: made in house
# T4 sequence (Q8I6U4 244-484): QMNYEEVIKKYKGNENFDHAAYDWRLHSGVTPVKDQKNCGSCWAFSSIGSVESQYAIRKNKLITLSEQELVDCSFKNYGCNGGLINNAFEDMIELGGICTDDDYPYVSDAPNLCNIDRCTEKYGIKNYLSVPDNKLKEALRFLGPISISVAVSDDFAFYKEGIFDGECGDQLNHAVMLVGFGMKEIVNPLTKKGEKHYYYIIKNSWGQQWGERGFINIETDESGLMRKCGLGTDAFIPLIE
# Excerpt: as §2, §3, §4, §5
# cruzain (CR) = cruzain (CR) (Trypanosoma cruzi, UniProt P25779); experiment: In vitro inhibition of cruzain, fluorescence of Z-Phe-Arg-AMC breakdown; assay type: biochemical
# Chain of cruzain (CR) (P25779 123-467): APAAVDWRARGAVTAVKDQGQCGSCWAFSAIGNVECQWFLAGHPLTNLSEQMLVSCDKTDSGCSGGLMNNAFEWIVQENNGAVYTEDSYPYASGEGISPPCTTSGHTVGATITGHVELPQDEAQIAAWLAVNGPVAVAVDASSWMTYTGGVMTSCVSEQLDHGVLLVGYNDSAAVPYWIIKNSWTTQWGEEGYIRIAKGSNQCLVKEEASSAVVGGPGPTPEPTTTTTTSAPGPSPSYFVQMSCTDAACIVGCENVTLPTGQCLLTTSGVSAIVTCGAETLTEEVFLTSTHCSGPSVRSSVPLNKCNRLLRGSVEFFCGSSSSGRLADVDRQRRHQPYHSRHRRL
# Experimental: as §3, §5
compound,measurement,setting,value
CCOC(=O)/C=C/C(=O)[C@H](CCc1ccccc1)NC(=O)[C@H](CC(C)C)NC(=O)OCc1ccccc1 [FGA-47],IC50,"[1]; mean of replicates, read-out: P.falc NF54 IC50 mean",0.821 µg/mL
same,IC50,"[1]; replicate 1, erythrocytic stages, read-out: P.falc NF54 IC50 repl1",0.921 µg/mL
same,IC50,"[1]; replicate 2, erythrocytic stages, read-out: P.falc NF54 IC50 repl2",0.72 µg/mL
same,IC50,"[2]; mean of replicates, read-out: L.don. ax am IC50 mean",0.048 µg/mL
same,IC50,"[2]; replicate 1, axenic amastigotes, pH 5.4, 70 h, read-out: L.don. ax am IC50 repl1",0.044 µg/mL
same,IC50,"[2]; replicate 2, axenic amastigotes, pH 5.4, 70 h, read-out: L.don. ax am IC50 repl2",0.052 µg/mL
same,IC50,"[3]; 70 h, replicate 1, bloodstream forms, 70 h, read-out: T.b.rhod. IC50 repl1",1.68 µg/mL
same,IC50,"[3]; 70 h, replicate 2, bloodstream forms, 70 h, read-out: T.b.rhod. IC50 repl2",0.675 µg/mL
same,IC50,"[3]; mean of replicates, read-out: T.b.rhod. IC50 mean",1.18 µg/mL
same,IC50,"[4]; mean of replicates, read-out: T.cruzi. IC50 mean",3.63 µg/mL
same,IC50,"[4]; replicate 1, L-6 cells, 96 h, read-out: T.cruzi. IC50 repl1",5.17 µg/mL
same,IC50,"[4]; replicate 2, L-6 cells, 96 h, read-out: T.cruzi. IC50 repl2",2.09 µg/mL
"CCCCCCCCCCCCCCCCOP(=O)([O-])OCC[N+](C)(C)C [Miltefosine, reference compound]",IC50,"[2]; 70 h, pH 5.4, replicate 2, axenic amastigotes, pH 5.4, 70 h, read-out: L.don. ax am IC50 repl2",0.071 µg/mL
same,L.don. ax am IC50 mean,[2]; mean of replicates,"0,059 micrograms/mL and 1,44 micrograms/mL"
same,L.don. ax am IC50 repl1,"[2]; replicate 1, axenic amastigotes, pH 5.4, 70 h","0,046 micrograms/mL and 1,44 micrograms/mL"
CCOC(=O)/C=C/C(=O)[C@H](CCc1ccccc1)NC(=O)[C@H](Cc1ccccc1)NC(=O)OCc1ccccc1 [drawing 38],RD(K2nd(M-1s-1)),Rhodesain,1274510 M⁻¹ s⁻¹
same,IC50,Rhodesain,30.7 nM
same,CL(K2nd(M-1s-1)),Cathepsin L (human); CL=CathepsinL,45364 M⁻¹ s⁻¹
same,IC50,"Cathepsin L (human); CL=CathepsinL; 25 °C, pH 6.5, 6,25 µM substrate; read-out: CL(IC50)",50 nM
same,CB(K2nd(M-1s-1)),Cathepsin B (human),45486 M⁻¹ s⁻¹
same,IC50,Cathepsin B (human),70 nM
same,FP2(K2nd(M-1s-1)),Falcipain 2,17099 M⁻¹ s⁻¹
CCOC(=O)/C=C/C(=O)[C@H](CCc1ccccc1)NC(=O)[C@H](CC(C)C)NC(=O)OCc1ccccc1 [drawing 39],CR(K2nd(M-1s-1)),cruzain (CR),60784 M⁻¹ s⁻¹
same,IC50,cruzain (CR),77 nM
same,RD(K2nd(M-1s-1)),Rhodesain,116147 M⁻¹ s⁻¹
same,IC50,Rhodesain,145 nM
same,CL(K2nd(M-1s-1)),Cathepsin L (human); CL=CathepsinL,29885 M⁻¹ s⁻¹
same,IC50,"Cathepsin L (human); read-out: CL(IC50); CL=CathepsinL; 25 °C, pH 6.5, 6,25 µM substrate",257 nM
same,CB(K2nd(M-1s-1)),Cathepsin B (human),42393 M⁻¹ s⁻¹
same,IC50,Cathepsin B (human),50 nM
same,FP2(K2nd(M-1s-1)),Falcipain 2,6035 M⁻¹ s⁻¹
